pIC50: −log10 of the molar value.
Each molecule was assayed against human kinase Mps-1 (Homo sapiens (Human), UniProt P33981) (assay: Mps-1 kinase assay (TR-FRET)). Details: N-terminally GST-tagged human full length recombinant Mps-1; 10 μM ATP; 1 μM biotinylated peptide substrate; read-out: Mps1 IC50.
human kinase Mps-1, sequence (P33981 whole entry): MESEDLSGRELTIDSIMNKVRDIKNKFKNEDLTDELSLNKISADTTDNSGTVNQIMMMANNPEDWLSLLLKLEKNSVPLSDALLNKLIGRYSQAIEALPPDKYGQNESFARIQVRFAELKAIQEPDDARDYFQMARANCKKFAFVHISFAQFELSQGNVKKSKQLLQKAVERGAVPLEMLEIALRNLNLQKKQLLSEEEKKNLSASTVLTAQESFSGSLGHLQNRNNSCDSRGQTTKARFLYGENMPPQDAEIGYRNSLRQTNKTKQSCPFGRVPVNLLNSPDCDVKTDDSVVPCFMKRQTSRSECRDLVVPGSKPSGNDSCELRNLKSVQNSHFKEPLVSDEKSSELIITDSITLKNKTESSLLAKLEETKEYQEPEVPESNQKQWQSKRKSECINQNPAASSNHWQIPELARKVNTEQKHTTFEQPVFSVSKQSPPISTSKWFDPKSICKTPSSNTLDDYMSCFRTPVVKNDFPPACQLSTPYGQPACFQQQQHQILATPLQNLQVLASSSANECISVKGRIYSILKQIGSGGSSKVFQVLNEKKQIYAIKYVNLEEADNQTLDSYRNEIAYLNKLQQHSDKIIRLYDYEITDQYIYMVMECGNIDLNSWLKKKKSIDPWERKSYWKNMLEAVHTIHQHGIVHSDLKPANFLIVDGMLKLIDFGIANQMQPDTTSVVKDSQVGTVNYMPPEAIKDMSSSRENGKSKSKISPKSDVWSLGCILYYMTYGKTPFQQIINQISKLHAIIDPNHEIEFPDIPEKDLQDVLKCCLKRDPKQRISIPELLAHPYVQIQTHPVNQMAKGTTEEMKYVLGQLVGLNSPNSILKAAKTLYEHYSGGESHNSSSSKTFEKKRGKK
Format: biochemical
Method in brief: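 TR-FRET signal between a Europium anti-phospho-Ser/Thr antibody and streptavidin-XLent reported phosphorylation of a biotinylated peptide by GST-tagged full-length Mps-1. Enzyme was near 1 nM final, chosen per lot for linearity.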
For `CCNC(=O)c1ccc(-n2cnc3c(NCC4CCOCC4)cc(Oc4ccc(OC)cc4F)cc32)cc1C` [Example 87, N-ethyl-4-{6-(2-fluoro-4-methoxyphenoxy)-4-[(tetrahydro-2H-pyran-4-ylmethyl)amino]-1H-benzimidazol-1-yl}-2-methylbenzamide], the pIC50 was 7.94.
Work on `CNC(=O)c1ccc(-n2cnc3c(NCCC(F)(F)F)cc(Oc4ccc(OC)cc4F)cc32)cc1C` [Example 88, 4-{6-(2-fluoro-4-methoxyphenoxy)-4-[(3,3,3-trifluoropropyl)amino]-1H-benzimidazol-1-yl}-N,2-dimethylbenzamide] yielded a pIC50 of 8.17.
Work on `CCNC(=O)c1ccc(-n2cnc3c(NCCC(F)(F)F)cc(Oc4ccc(OC)cc4F)cc32)cc1C` [Example 89, N-ethyl-4-{6-(2-fluoro-4-methoxyphenoxy)-4-[(3,3,3-trifluoropropyl)amino]-1H-benzimidazol-1-yl}-2-methylbenzamide] yielded a pIC50 of 7.97.
Work on `Cc1cc(-n2cnc3c(NCCC(F)(F)F)cc(Oc4ccc(O)cc4F)cc32)ccc1C(=O)NC1CC1` [Example 90, N-cyclopropyl-4-{6-(2-fluoro-4-hydroxyphenoxy)-4-[(3,3,3-trifluoropropyl)amino]-1H-benzimidazol-1-yl}-2-methylbenzamide] yielded a pIC50 of 8.96.
With `Cc1cc(-n2cnc3c(NCCC(F)(F)F)cc(Oc4cccc(F)c4O)cc32)ccc1C(=O)NC1CC1` [Example 91, N-cyclopropyl-4-{6-(3-fluoro-2-hydroxyphenoxy)-4-[(3,3,3-trifluoropropyl)amino]-1H-benzimidazol-1-yl}-2-methylbenzamide] the pIC50 was 9.40.
In the case of `CNC(=O)c1ccc(-n2cnc3c(NCCC(F)(F)F)cc(Oc4cccc(F)c4O)cc32)cc1C` [Example 92, 4-{6-(3-fluoro-2-hydroxyphenoxy)-4-[(3,3,3-trifluoropropyl)amino]-1H-benzimidazol-1-yl}-N,2-dimethylbenzamide], the pIC50 was 8.52.
`CCNC(=O)c1ccc(-n2cnc3c(NCCC(F)(F)F)cc(Oc4cccc(F)c4O)cc32)cc1C` [Example 93, N-ethyl-4-{6-(3-fluoro-2-hydroxyphenoxy)-4-[(3,3,3-trifluoropropyl)amino]-1H-benzimidazol-1-yl}-2-methylbenzamide] gave a pIC50 of 8.39.
`CNC(=O)c1ccc(-n2cnc3c(NCCC(F)(F)F)cc(Oc4cccc(O)c4)cc32)cc1C` [Example 94, 4-{6-(3-hydroxyphenoxy)-4-[(3,3,3-trifluoropropyl)amino]-1H-benzimidazol-1-yl}-N,2-dimethylbenzamide] gave a pIC50 of 8.51.
`CCNC(=O)c1ccc(-n2cnc3c(NCCC(F)(F)F)cc(Oc4cccc(O)c4)cc32)cc1C` [Example 95, N-ethyl-4-{6-(3-hydroxyphenoxy)-4-[(3,3,3-trifluoropropyl)amino]-1H-benzimidazol-1-yl}-2-methylbenzamide] was tested, and the pIC50 was 8.25.
For `Cc1cc(-n2cnc3c(NCCC(F)(F)F)cc(Oc4cccc(S(F)(F)(F)(F)F)c4)cc32)ccc1C(=O)NC1CC1` [Example 96, N-cyclopropyl-2-methyl-4-{6-[3-(pentafluoro-lambda^6-sulfanyl)phenoxy]-4-[(3,3,3-trifluoropropyl)amino]-1H-benzimidazol-1-yl}benzamide], the pIC50 was 8.32.
`CNC(=O)c1ccc(-n2cnc3c(NCCC(F)(F)F)cc(Oc4ccc(O)cc4F)cc32)cc1C` [Example 97, 4-{6-(2-fluoro-4-hydroxyphenoxy)-4-[(3,3,3-trifluoropropyl)amino]-1H-benzimidazol-1-yl}-N,2-dimethylbenzamide] gave a pIC50 of 8.34.
With `CCNC(=O)c1ccc(-n2cnc3c(NCCC(F)(F)F)cc(Oc4ccc(O)cc4F)cc32)cc1C` [Example 98, N-ethyl-4-{6-(2-fluoro-4-hydroxyphenoxy)-4-[(3,3,3-trifluoropropyl)amino]-1H-benzimidazol-1-yl}-2-methylbenzamide] the pIC50 was 8.34.
`CNC(=O)c1ccc(-n2cnc3c(NCCC(F)(F)F)cc(Oc4ccc(O)c(F)c4)cc32)cc1C` [Example 99, 4-{6-(3-fluoro-4-hydroxyphenoxy)-4-[(3,3,3-trifluoropropyl)amino]-1H-benzimidazol-1-yl}-N,2-dimethylbenzamide] gave a pIC50 of 8.62.
`CCNC(=O)c1ccc(-n2cnc3c(NCCC(F)(F)F)cc(Oc4ccc(O)c(F)c4)cc32)cc1C` [Example 100, N-ethyl-4-{6-(3-fluoro-4-hydroxyphenoxy)-4-[(3,3,3-trifluoropropyl)amino]-1H-benzimidazol-1-yl}-2-methylbenzamide] was tested, and the pIC50 was 8.47.
`COc1ccc(C(=O)c2cc(NCCC(F)(F)F)c3ncn(-c4ccc(C(=O)NC5CC5)c(C)c4)c3c2)cc1F` [Example 101, N-cyclopropyl-4-{6-(3-fluoro-4-methoxybenzoyl)-4-[(3,3,3-trifluoropropyl)amino]-1H-benzimidazol-1-yl}-2-methylbenzamide] gave a pIC50 of 8.19.
`COc1ccc(C(O)c2cc(NCCC(F)(F)F)c3ncn(-c4ccc(C(=O)NC5CC5)c(C)c4)c3c2)cc1F` (centres unmarked) [Example 102, N-cyclopropyl-4-{6-[(3-fluoro-4-methoxyphenyl)(hydroxy)methyl]-4-[(3,3,3-trifluoropropyl)amino]-1H-benzimidazol-1-yl}-2-methylbenzamide] gave a pIC50 of 8.74.
For `C=C(c1ccc(OC)c(F)c1)c1cc(NCCC(F)(F)F)c2ncn(-c3ccc(C(=O)NC4CC4)c(C)c3)c2c1` [Example 104, N-cyclopropyl-4-{6-[1-(3-fluoro-4-methoxyphenyl)vinyl]-4-[(3,3,3-trifluoropropyl)amino]-1H-benzimidazol-1-yl}-2-methylbenzamide], the pIC50 was 8.68.
With `COc1ccc(Cc2cc(NCCC(F)(F)F)c3ncn(-c4ccc(C(=O)NC5CC5)c(C)c4)c3c2)cc1F` [Example 106, N-cyclopropyl-4-{6-(3-fluoro-4-methoxybenzyl)-4-[(3,3,3-trifluoropropyl)amino]-1H-benzimidazol-1-yl}-2-methylbenzamide] the pIC50 was 9.05.
With `Cc1ccc(F)cc1Oc1cc(NCCC(F)(F)F)c2ncn(-c3ccc(C(=O)NC4CC4)c(C)c3)c2c1` [Example 107, N-cyclopropyl-4-{6-(5-fluoro-2-methylphenoxy)-4-[(3,3,3-trifluoropropyl)amino]-1H-benzimidazol-1-yl}-2-methylbenzamide] the pIC50 was 8.28.
For `Cc1cc(-n2cnc3c(NCCC(F)(F)F)cc(C(=O)c4ccc(O)c(F)c4)cc32)ccc1C(=O)NC1CC1` [Example 108, N-cyclopropyl-4-{6-(3-fluoro-4-hydroxybenzoyl)-4-[(3,3,3-trifluoropropyl)amino]-1H-benzimidazol-1-yl}-2-methylbenzamide], the pIC50 was 7.77.
Work on `Cc1cc(-n2cnc3c(NCCC(F)(F)F)cc(Oc4cccc(C(F)F)c4)cc32)ccc1C(=O)NC1CC1` [Example 109, N-cyclopropyl-4-{6-[3-(difluoromethyl)phenoxy]-4-[(3,3,3-trifluoropropyl)amino]-1H-benzimidazol-1-yl}-2-methylbenzamide] yielded a pIC50 of 8.55.
For `COc1ccccc1C(=O)c1cc(NCCC(F)(F)F)c2ncn(-c3ccc(C(=O)NC4CC4)c(C)c3)c2c1` [Example 110, N-cyclopropyl-4-{6-(2-methoxybenzoyl)-4-[(3,3,3-trifluoropropyl)amino]-1H-benzimidazol-1-yl}-2-methylbenzamide], the pIC50 was 7.92.
`Cc1cc(-n2cnc3c(NCCC(F)(F)F)cc(Oc4cccc(O)c4)cc32)ccc1C(=O)NC1CC1` [Example 111, N-cyclopropyl-4-{6-(3-hydroxyphenoxy)-4-[(3,3,3-trifluoropropyl)amino]-1H-benzimidazol-1-yl}-2-methylbenzamide] was tested, and the pIC50 was 9.22.

From patent US9388140B2, “Substituted benzimidazoles” (priority 2011, dated 2016)
